Measured values taken from US8148373B2, “Compounds” (AstraZeneca AB, priority 2008, dated 2012).

Tests used:
[1] = target: T1, human muscarinic acetylcholine M3 receptor (M3-ACh) (Homo sapiens, UniProt P20309); experiment: Muscarinic 3 Receptor Binding Assay ([3H]NMS competition, SPA); details: [3H]NMS 0.1 nM, CHO-K1 cell membranes, 16 hours at room temperature; read-out: M3 pIC50 (converted)
T1 construct: expressed in transfected cells; host or cells: CHO-K1 (Chinese Hamster Ovary) cell membranes
In short: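 Competition SPA binding of 0.1 nM [3H]NMS (quarter Kd) to membranes from CHO-K1 cells expressing human M3, in 20 mM HEPES pH 7.4, 5 mM MgCl2, 1% DMSO. Incubated 16 h at room temperature; non-specific binding with 1 µM atropine. pIC50 from 50% reduction of specific binding.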

[2] = target: T2, Adrenergic β2 (H292 cells) (Homo sapiens, UniProt P07550); experiment: Assay for Adrenergic β2 Mediated cAMP Production (concentration response, AlphaScreen cAMP detection); assay type: cell-based; details: for EC50: cAMP production, 60 minutes at room temperature, 300 μM rolipram, read-out: β2 pEC50 (converted); for β2 Intrinsic activity: fraction relative to the maximum activity determined for formoterol
T2 construct: endogenous in cells; host or cells: H292 cells
In short: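 H292 cells plated overnight, pre-treated with rolipram (300 μM final) 10 min, then compound 60 min at room temperature in HBSS/10 mM HEPES pH7.4/5 mM glucose, 1% DMSO. Lysate cAMP read by AlphaScreen against a cAMP standard curve; 4-parameter fit gives pEC50 and intrinsic activity as fraction of formoterol maximum.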

T2 sequence (P07550 whole entry): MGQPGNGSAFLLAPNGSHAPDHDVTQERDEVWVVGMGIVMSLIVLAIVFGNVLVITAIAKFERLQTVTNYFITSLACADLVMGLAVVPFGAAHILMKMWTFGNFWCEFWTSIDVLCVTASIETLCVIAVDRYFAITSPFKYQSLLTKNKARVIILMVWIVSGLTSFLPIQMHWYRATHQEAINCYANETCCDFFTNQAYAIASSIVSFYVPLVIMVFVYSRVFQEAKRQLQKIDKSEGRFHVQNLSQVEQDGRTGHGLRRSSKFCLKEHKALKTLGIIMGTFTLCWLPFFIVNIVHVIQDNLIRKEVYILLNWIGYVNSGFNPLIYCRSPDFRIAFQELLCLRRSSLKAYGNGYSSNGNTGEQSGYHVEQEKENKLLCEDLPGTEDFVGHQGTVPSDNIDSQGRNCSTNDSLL
T1 sequence (P20309 whole entry): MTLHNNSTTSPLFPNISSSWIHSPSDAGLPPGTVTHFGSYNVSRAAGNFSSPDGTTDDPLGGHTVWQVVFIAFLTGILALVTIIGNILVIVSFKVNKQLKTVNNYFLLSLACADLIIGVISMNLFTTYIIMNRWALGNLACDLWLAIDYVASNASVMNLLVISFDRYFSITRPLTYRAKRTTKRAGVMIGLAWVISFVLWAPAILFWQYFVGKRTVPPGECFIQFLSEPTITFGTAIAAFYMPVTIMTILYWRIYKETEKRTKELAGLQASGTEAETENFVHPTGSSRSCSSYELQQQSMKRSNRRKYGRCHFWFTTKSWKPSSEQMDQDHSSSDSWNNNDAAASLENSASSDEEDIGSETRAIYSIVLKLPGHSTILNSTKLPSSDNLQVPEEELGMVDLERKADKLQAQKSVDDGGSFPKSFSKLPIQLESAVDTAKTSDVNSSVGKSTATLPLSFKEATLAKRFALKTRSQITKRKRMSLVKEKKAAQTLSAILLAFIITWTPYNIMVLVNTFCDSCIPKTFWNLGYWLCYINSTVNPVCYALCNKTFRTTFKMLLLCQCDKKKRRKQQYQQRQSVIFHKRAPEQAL

Structure (SMILES) | IC50 [1] | EC50 [2] | β2 Intrinsic activity [2]
CC(C)c1nc(C(=O)N2CCOC3(CCN(Cc4ccc(F)c(CCNC[C@H](O)c5ccc(O)c6[nH]c(=O)sc56)c4F)CC3)C2)cs1 [Example 45, (R)-7-(2-(2,6-Difluoro-3-((4-(2-isopropylthiazole-4-carbonyl)-1-oxa-4,9-diazaspiro[5.5]undecan-9-yl)methyl)phenethylamino)-1-hydroxyethyl)-4-hydroxybenzo[d]thiazol-2(3H)-one ditrifluoroacetate] | 5.01 nM | 10 nM | 0.8
CC(C)c1nc(C(=O)N2CCOC3(CCN(Cc4ccc(F)c(CCNC[C@H](O)c5ccc(O)c6[nH]c(=O)ccc56)c4F)CC3)C2)cs1 [Example 46, (R)-5-(2-(2,6-Difluoro-3-((4-(2-isopropylthiazole-4-carbonyl)-1-oxa-4,9-diazaspiro[5.5]undecan-9-yl)methyl)phenethylamino)-1-hydroxyethyl)-8-hydroxyquinolin-2(1H)-one ditrifluoroacetate] | 6.31 nM | 79.4 nM | 1
CC(C)c1nc(C(=O)N2CCOC3(CCN(Cc4ccc(F)c(CCNC[C@H](O)c5ccc(O)c6[nH]c(=O)sc56)c4)CC3)C2)cs1 [Example 47, (R)-7-(2-(2-Fluoro-5-((4-(2-isopropylthiazole-4-carbonyl)-1-oxa-4,9-diazaspiro[5.5]undecan-9-yl)methyl)phenethylamino)-1-hydroxyethyl)-4-hydroxybenzo[d]thiazol-2(3H)-one ditrifluoroacetate] | 0.501 nM | 15.8 nM | 0.9
CC(C)c1nc(C(=O)N2CCOC3(CCN(Cc4cccc(CCNC[C@H](O)c5ccc(O)c6[nH]c(=O)sc56)c4F)CC3)C2)cs1 [Example 48, (R)-7-(2-(2-Fluoro-3-((4-(2-isopropylthiazole-4-carbonyl)-1-oxa-4,9-diazaspiro[5.5]undecan-9-yl)methyl)phenethylamino)-1-hydroxyethyl)-4-hydroxybenzo[d]thiazol-2(3H)-one ditrifluoroacetate] | 0.794 nM | 5.01 nM | 0.9
Cc1nc2cc(C(=O)N3CCOC4(CCN(Cc5cc(CCNC[C@H](O)c6ccc(O)c7[nH]c(=O)sc67)cs5)CC4)C3)ccc2s1 [Example 49, (R)-4-Hydroxy-7-(1-hydroxy-2-(2-(5-((4-(2-methylbenzo[d]thiazole-5-carbonyl)-1-oxa-4,9-diazaspiro[5.5]undecan-9-yl)methyl)thiophen-3-yl)ethylamino)ethyl)benzo[d]thiazol-2(3H)-one ditrifluoroacetate] | 39.8 nM | 7.94 nM | 0.9
CC(C)(C)c1nc(C(=O)N2CCOC3(CCN(Cc4cc(F)cc(CCNC[C@H](O)c5ccc(O)c6[nH]c(=O)sc56)c4)CC3)C2)cs1 [Example 50, (R)-7-(2-(3-((4-(2-tert-Butylthiazole-4-carbonyl)-1-oxa-4,9-diazaspiro[5.5]undecan-9-yl)methyl)-5-fluorophenethylamino)-1-hydroxyethyl)-4-hydroxybenzo[d]thiazol-2(3H)-one ditrifluoroacetate] | 39.8 nM | 7.94 nM | 0.9
CC(C)c1nc(C(=O)N2CC(F)(F)OC3(CCN(Cc4cc(CCNC[C@H](O)c5ccc(O)c6[nH]c(=O)ccc56)cs4)CC3)C2)cs1 [Example 51, (R)-5-(2-(2-(5-((2,2-Difluoro-4-(2-isopropylthiazole-4-carbonyl)-1-oxa-4,9-diazaspiro[5.5]undecan-9-yl)methyl)thiophen-3-yl)ethylamino)-1-hydroxyethyl)-8-hydroxyquinolin-2(1H)-one ditrifluoroacetate] | 15.8 nM | 3.16 nM | 0.9
CC(C)c1nc(C(=O)N2CCOC3(CCN(Cc4cc(Cl)cc(CCNC[C@H](O)c5ccc(O)c6[nH]c(=O)sc56)c4)CC3)C2)cs1 [Example 52, (R)-7-(2-(3-Chloro-5-((4-(2-isopropylthiazole-4-carbonyl)-1-oxa-4,9-diazaspiro[5.5]undecan-9-yl)methyl)phenethylamino)-1-hydroxyethyl)-4-hydroxybenzo[d]thiazol-2(3H)-one ditrifluoroacetate] | 7.94 nM | 5.01 nM | 0.9
CC(C)c1csc(C(=O)N2CCOC3(CCN(Cc4cc(F)cc(CCNC[C@H](O)c5ccc(O)c6[nH]c(=O)sc56)c4)CC3)C2)n1 [Example 53, (R)-7-(2-(3-Fluoro-5-((4-(4-isopropylthiazole-2-carbonyl)-1-oxa-4,9-diazaspiro[5.5]undecan-9-yl)methyl)phenethylamino)-1-hydroxyethyl)-4-hydroxybenzo[d]thiazol-2(3H)-one ditrifluoroacetate] | 12.6 nM | 10 nM | 1
CC(C)c1cnc(C(=O)N2CCOC3(CCN(Cc4cc(F)cc(CCNC[C@H](O)c5ccc(O)c6[nH]c(=O)sc56)c4)CC3)C2)s1 [Example 54, (R)-7-(2-(3-Fluoro-5-((4-(5-isopropylthiazole-2-carbonyl)-1-oxa-4,9-diazaspiro[5.5]undecan-9-yl)methyl)phenethylamino)-1-hydroxyethyl)-4-hydroxybenzo[d]thiazol-2(3H)-one ditrifluoroacetate] | 200 nM | 6.31 nM | 0.9
CC(C)c1ncc(C(=O)N2CCOC3(CCN(Cc4cc(F)cc(CCNC[C@H](O)c5ccc(O)c6[nH]c(=O)sc56)c4)CC3)C2)s1 [Example 55, (R)-7-(2-(3-Fluoro-5-((4-(2-isopropylthiazole-5-carbonyl)-1-oxa-4,9-diazaspiro[5.5]undecan-9-yl)methyl)phenethylamino)-1-hydroxyethyl)-4-hydroxybenzo[d]thiazol-2(3H)-one ditrifluoroacetate] | 63.1 nM | 6.31 nM | 1
CCCc1nc(C(=O)N2CCOC3(CCN(Cc4cc(F)cc(CCNC[C@H](O)c5ccc(O)c6[nH]c(=O)sc56)c4)CC3)C2)cs1 [Example 56, (R)-7-(2-(3-Fluoro-5-((4-(2-propylthiazole-4-carbonyl)-1-oxa-4,9-diazaspiro[5.5]undecan-9-yl)methyl)phenethylamino)-1-hydroxyethyl)-4-hydroxybenzo[d]thiazol-2(3H)-one ditrifluoroacetate] | 2.51 nM | 7.94 nM | 1
O=C(c1csc(C2CC2)n1)N1CCOC2(CCN(Cc3cc(F)cc(CCNC[C@H](O)c4ccc(O)c5[nH]c(=O)sc45)c3)CC2)C1 [Example 57, (R)-7-(2-(3-((4-(2-Cyclopropylthiazole-4-carbonyl)-1-oxa-4,9-diazaspiro[5.5]undecan-9-yl)methyl)-5-fluorophenethylamino)-1-hydroxyethyl)-4-hydroxybenzo[d]thiazol-2(3H)-one ditrifluoroacetate] | 0.794 nM | 6.31 nM | 1.1
O=C(c1csc(C2CCC2)n1)N1CCOC2(CCN(Cc3cc(F)cc(CCNC[C@H](O)c4ccc(O)c5[nH]c(=O)sc45)c3)CC2)C1 [Example 58, (R)-7-(2-(3-((4-(2-Cyclobutylthiazole-4-carbonyl)-1-oxa-4,9-diazaspiro[5.5]undecan-9-yl)methyl)-5-fluorophenethylamino)-1-hydroxyethyl)-4-hydroxybenzo[d]thiazol-2(3H)-one ditrifluoroacetate] | 6.31 nM | 10 nM | 0.9
O=C(c1csc(C2CCCC2)n1)N1CCOC2(CCN(Cc3cc(F)cc(CCNC[C@H](O)c4ccc(O)c5[nH]c(=O)sc45)c3)CC2)C1 [Example 59, (R)-7-(2-(3-((4-(2-Cyclopentylthiazole-4-carbonyl)-1-oxa-4,9-diazaspiro[5.5]undecan-9-yl)methyl)-5-fluorophenethylamino)-1-hydroxyethyl)-4-hydroxybenzo[d]thiazol-2(3H)-one ditrifluoroacetate] | 7.94 nM | 15.8 nM | 1
Cc1csc(C(=O)N2CCOC3(CCN(Cc4cc(F)cc(CCNC[C@H](O)c5ccc(O)c6[nH]c(=O)sc56)c4)CC3)C2)c1 [Example 60, (R)-7-(2-(3-Fluoro-5-((4-(4-methylthiophene-2-carbonyl)-1-oxa-4,9-diazaspiro[5.5]undecan-9-yl)methyl)phenethylamino)-1-hydroxyethyl)-4-hydroxybenzo[d]thiazol-2(3H)-one ditrifluoroacetate] | 3.98 nM | 5.01 nM | 1
CC(C)c1nc(C(=O)N2CCOC3(CCN(Cc4cc(CCNC[C@H](O)c5ccc(O)c6[nH]c(=O)sc56)ccc4Cl)CC3)C2)cs1 [Example 61, (R)-7-(2-(4-Chloro-3-((4-(2-isopropylthiazole-4-carbonyl)-1-oxa-4,9-diazaspiro[5.5]undecan-9-yl)methyl)phenethylamino)-1-hydroxyethyl)-4-hydroxybenzo[d]thiazol-2(3H)-one ditrifluoroacetate] | 5.01 nM | 63.1 nM | 0.9
CC(C)c1nc(C(=O)N2CCOC3(CCN(Cc4cccc5c(CNC[C@H](O)c6ccc(O)c7[nH]c(=O)sc67)cccc45)CC3)C2)cs1 [Example 62, (R)-4-Hydroxy-7-(1-hydroxy-2-((5-((4-(2-isopropylthiazole-4-carbonyl)-1-oxa-4,9-diazaspiro[5.5]undecan-9-yl)methyl)naphthalen-1-yl)methylamino)ethyl)benzo[d]thiazol-2(3H)-one ditrifluoroacetate] | 251 nM | 251 nM | 0.9
